“And” between values parts separate entries of the source, which are not always exact repeats. Equal values may be shown once. Read-outs that look alike come from different tables or passages of the source.
Experiments:
[1] = tested on: HCC-1954 cells; experiment: In vitro cytotoxicity, SRB assay, 72 h dose-response; format: cell-based; conditions: Homo sapiens, HCC1954, 72 h, HER2+; 72 h; read-out: IC50
Text: (§1) Nature Protocols, 1, 1112-1 116.

[2] = tested on: MCF-7 cells; experiment: as above; format: cell-based; conditions: Homo sapiens, MCF7, 72 h, HER2−; 72 h; read-out: IC50
Text: as §1

[3] = tested on: MDA-MB-231 cells; experiment: as above; format: cell-based; conditions: Homo sapiens, MDA-MB-231, 72 h, HER2−; 72 h; read-out: IC50
Text: as §1

[4] = tested on: HCC-1954, SK-BR-3, MDA-MB-231 and MCF-7 cells; experiment: In vitro cytotoxicity, whole breast cancer cell panel
Text: (§2) All tumor cell lines used in this study were obtained from the American Type Culture Collection (ATCC), unless otherwise indicated; BT-474 (ATCC HTB-20, Breast Ductal Carcinoma), SK-BR-3 (ATCC HTB-30, Breast Adenocarcinoma) and HCC-1954 (ATCC CRL-2338, Breast Ductal Carcinoma), all HER2+; MDA-MB-231 (ATCC HTB-26, Breast Adenocarcinoma) and MCF-7 (ATCC HTB-22 Breast Adenocarcinoma, pleural effusion), all HER2-; SK-OV-3 (ATCC HTB-77, Ovary Adenocarcinoma), HER2+; NB-4 (Acute Promyelocytic Leukemia, APL, CD13+, M. Lanotte et al. (1991) NB4, a maturation inducible cell line with t(15;17) marker isolated from a human acute promyelocytic leukemia (M3). Blood 77, 1080-1086), (CD13+) and U937 (ATCC CRL-1 593.2, Histiocytic Lymphoma, CD13+ and CD4+); Raji (ATCC CCL-86, Burkitt's Lymphoma) (CD13−, CD20+, CD5−, and CD4−); RPMI-8226 (ATCC CRM-CCL-155, Multiple Myeloma) (CD13−, CD20−, CD5− and CD4−); Karpas-299 (DSMZ ACC-31, Non-Hodgkin's Lymphoma) (CD20−, CD5+, and CD4+); MOLT-4 (ATCC CRL-1 582, Acute Lymphoblastic Leukemia, CD5+). In addition, the two Raji cell (ATCC CCL-86, Burkitt's Lymphoma) clones used in this study Raji-clone #10 (high CD5 expression) and Raji-clone18 (null CD5 expression), were provided by Dr. Juan M. Zapata (Instituto de Investigaciones Biomedicas “Alberto Sols”, CSIC-UAM, Madrid, Spain). Cells were maintained at 37° C., 5% CO 2 and 95% humidity in Dulbecco's Modified Eagle's Medium (DMEM) (for MCF and MDA-MB-231 cells), RPMI-1640 (for SK-BR-3, HCC-1954, NB-4, U937, Raji, RPMI-8226, Karpas-299, MOLT-4, Raji-clone #10 and Raji-clone #18 cells), RPMI-1640+1% ITS (for BT-474 cells) or McCOyS (for SK-OV-3 cells), all media supplemented with 10% Fetal Calf Serum (FCS) and 100 units/mL penicillin and streptomycin.
For adherent cells: A colorimetric assay using sulforhodamine B (SRB) was adapted for quantitative measurement of cell growth and cytotoxicity, as described in V. Vichai and K. Kirtikara (2006) Sulforhodamine B colorimetric assay for cytotoxicity screening. Nature Protocols, 1, 1112-1 116. Briefly, cells were seeded in 96-well microtiter plates and allowed to stand for 24 hours in drug-free medium before treatment with vehicle alone or the indicated compounds for 72 hours. For quantification, cells were washed twice with phosphate buffered saline (PBS), fixed for 15 min in 1% glutaraldehyde solution, rinsed twice with PBS, stained in 0.4% SRB-1% acetic acid solution for 30 min, rinsed several times with 1% acetic acid solution and air-dried. SRB was then extracted in 10 mM trizma base solution and the optical density measured at 490 nm in a microplate spectrophotometer. Cell survival was expressed as percentage of control, untreated cell survival.
(§3) The IC50 value refers to the concentration of compound inducing a 50% of cell death as compared to the control cell survival.
Standard dose-response (DR) curves for 72 hours were performed.

[5] = tested on: SK-BR-3 cells; experiment: In vitro cytotoxicity, SRB assay, 72 h dose-response; format: cell-based; conditions: Homo sapiens, SK-BR-3, 72 h, HER2+; 72 h; read-out: IC50
Text: All tumor cell lines used in this study were obtained from the American Type Culture Collection (ATCC), unless otherwise indicated; BT-474 (ATCC HTB-20, Breast Ductal Carcinoma), SK-BR-3 (ATCC HTB-30, Breast Adenocarcinoma) and HCC-1954 (ATCC CRL-2338, Breast Ductal Carcinoma), all HER2+; MDA-MB-231 (ATCC HTB-26, Breast Adenocarcinoma) and MCF-7 (ATCC HTB-22 Breast Adenocarcinoma, pleural effusion), all HER2-; SK-OV-3 (ATCC HTB-77, Ovary Adenocarcinoma), HER2+; NB-4 (Acute Promyelocytic Leukemia, APL, CD13+, M. Lanotte et al. (1991) NB4, a maturation inducible cell line with t(15;17) marker isolated from a human acute promyelocytic leukemia (M3). […] Cells were maintained at 37° C., 5% CO 2 and 95% humidity in Dulbecco's Modified Eagle's Medium (DMEM) (for MCF and MDA-MB-231 cells), RPMI-1640 (for SK-BR-3, HCC-1954, NB-4, U937, Raji, RPMI-8226, Karpas-299, MOLT-4, Raji-clone #10 and Raji-clone #18 cells), RPMI-1640+1% ITS (for BT-474 cells) or McCOyS (for SK-OV-3 cells), all media supplemented with 10% Fetal Calf Serum (FCS) and 100 units/mL penicillin and streptomycin.
For adherent cells: A colorimetric assay using sulforhodamine B (SRB) was adapted for quantitative measurement of cell growth and cytotoxicity, as described in V. Vichai and K. Kirtikara (2006) Sulforhodamine B colorimetric assay for cytotoxicity screening. […] Briefly, cells were seeded in 96-well microtiter plates and allowed to stand for 24 hours in drug-free medium before treatment with vehicle alone or the indicated compounds for 72 hours. For quantification, cells were washed twice with phosphate buffered saline (PBS), fixed for 15 min in 1% glutaraldehyde solution, rinsed twice with PBS, stained in 0.4% SRB-1% acetic acid solution for 30 min, rinsed several times with 1% acetic acid solution and air-dried. SRB was then extracted in 10 mM trizma base solution and the optical density measured at 490 nm in a microplate spectrophotometer. Cell survival was expressed as percentage of control, untreated cell survival.

[6] = tested on: Raji, RPMI-8226 and Karpas-299 cells; experiment: In vitro cytotoxicity, whole CD20 cell panel
Text: as §2
For suspension cells: A standard metabolic assay using MTT (3-(4,5-Dimethylthiazol-2-yl)-2,5-diphenyltetrazolium bromide) was adapted for quantitative measurement of cell growth and cytotoxicity, as described in T. Mosmann (1983) Rapid colorimetric assay for cellular growth and survival: Application to proliferation and cytotoxicity assays. J. Immunol. Meth., 65, 55-63. Briefly, MTT solution was added to the cell cultures at a final concentration of 0.5 mg/mL, and incubated for 1 to 4 hours at 37° C. until formazan crystals are formed. Culture medium is carefully removed from the cell cultures and formazan crystals resuspended in 100 μl DMSO. After mixing to assure solubilization, the quantity of formazan (presumably directly proportional to the number of viable cells) is measured by recording changes in absorbance at 570 nm using a plate reading spectrophotometer. Cell survival was expressed as percentage of control, untreated cell survival.
as §3
The in vitro cytotoxic activity of ADC12 along with the parent cytotoxic Compounds 1, 4, and 40, was evaluated was assayed against different human cancer cell lines expressing or not the CD20 antigen, including Raji (CD20 positive cells); RPMI-8226 and Karpas-299 (CD20 negative cells). Standard dose-response (DR) curves for 72 hours were performed.

[7] = Homo sapiens, read-out: IC50 values along the different cell lines tested (range), four breast cell lines
[8] = Homo sapiens, read-out: mean IC50 value across the whole cell panel, four breast cell lines
[9] = read-out: mean IC50 value across the whole cell panel, four breast cell lines

With `C/C=C\C[C@@H](C/C=C\NC(=O)[C@@H](NC(=O)\C=C/C=C\C(C)=C\[C@H](C)[C@@H]1CC=C(OC)C(=O)O1)C(C)(C)C)OC(=O)NCCCNC(=O)CCCCCN1C(=O)C=CC1=O` [Compound 5] the IC50 [1] was 0.0195 µg/mL and 23.8 nM, the IC50 [2] was 0.0775 µg/mL and 94.1 nM and the IC50 [3] was 0.057 µg/mL and 69.4 nM. For the same compound, the IC50 [4, 7] was 0.019 µg/mL to 0.077 µg/mL and 23.2 nM to 94.1 nM, the IC50 [4, 8] was 0.0433 µg/mL and 52.6 nM and the IC50 [5] was 0.019 µg/mL and 23.2 nM.

For `C/C=C\C[C@@H](C/C=C\NC(=O)[C@@H](NC(=O)\C=C/C=C\C(C)=C\[C@H](C)[C@@H]1CC=C(OC)C(=O)O1)C(C)(C)C)OC(=O)NCCCN` [Compound 8], the IC50 [1] was 0.0054 µg/mL and 8.59 nM, the IC50 [2] was 0.00675 µg/mL and 10.7 nM and the IC50 [3] was 0.00655 µg/mL and 10.4 nM. For the same compound, the IC50 [4, 7] was 0.0034 µg/mL to 0.00675 µg/mL and 2.94 nM to 15.1 nM, the IC50 [4, 8] was 0.00553 µg/mL and 8.79 nM and the “mean IC50 value across the whole cell panel” value ([4]; four breast cell lines) was 5.45 ng/mL. The IC50 [4, 9] was 8.67 nM and the IC50 [5] was 0.0034 µg/mL and 5.41 nM.

With `COC1=CC[C@@H]([C@@H](C)/C=C(C)/C=C\C=C/C(=O)N[C@H](C(=O)N/C=C\C[C@H](C/C=C(\C)Cl)OC(=O)NCCCS)C(C)(C)C)OC1=O` [Compound 15] the IC50 [1] was 0.000675 µg/mL and 0.994 nM, the IC50 [2] was 0.00145 µg/mL and 2.14 nM and the IC50 [3] was 0.00149 µg/mL and 2.19 nM. For the same compound, the IC50 [4, 7] was 0.00048 µg/mL to 0.00149 µg/mL and 0.706 nM to 2.19 nM, the IC50 [4, 8] was 0.00103 µg/mL and 1.51 nM and the “decrease of cytotoxic activity as compared to Compound 40” value ([4]; thiol containing tail) was “about 8 fold”. The IC50 [5] was 0.00048 µg/mL and 0.706 nM.

With `C/C=C\C[C@@H](C/C=C\NC(=O)[C@@H](NC(=O)\C=C/C=C\C(C)=C\[C@H](C)[C@@H]1CC=C(OC)C(=O)O1)C(C)(C)C)OC(=O)NCCCNC(=O)CCS` [Compound 18] the IC50 [1] was 0.00805 µg/mL and 11.2 nM, the IC50 [2] was 0.0185 µg/mL and 25.8 nM and the IC50 [3] was 0.0115 µg/mL and 16 nM. For the same compound, the IC50 [4, 7] was 0.0044 µg/mL to 0.0185 µg/mL and 6.14 nM to 25.8 nM, the IC50 [4, 8] was 0.0106 µg/mL and 14.8 nM and the IC50 [5] was 0.0044 µg/mL and 6.14 nM.

In the case of `CC#CC[C@@H](C/C=C\NC(=O)[C@@H](NC(=O)\C=C/C=C\C(C)=C\[C@H](C)[C@@H]1CC=C(OC)C(=O)O1)C(C)(C)C)OC(=O)NCCCN` [Compound 24], the IC50 [1] is reported as 0.018 µg/mL and 28.7 nM, the IC50 [2] is reported as 0.0165 µg/mL and 26.3 nM and the IC50 [3] is reported as 0.0175 µg/mL and 27.9 nM. The “decrease of cytotoxic activity as compared to Compound 41” value ([4]; 1,3-propylenediamine group) was “about 2 logs”, the IC50 ([4]; Homo sapiens, read-out: IC50 values across the different cell lines tested (range), four breast cell lines) was 9 to 18 ng/mL and the IC50 [4, 7] was 14 nM to 28 nM and 0.009 µg/mL to 0.018 µg/mL. For the same compound, the IC50 [4, 8] was 0.015 µg/mL and 24 nM, the “mean IC50 value across the whole cell panel” value ([4]; four breast cell lines) was 24 nM and the IC50 [5] was 0.009 µg/mL and 14.4 nM.

In the case of `CC#CC[C@@H](C/C=C\NC(=O)[C@@H](NC(=O)\C=C/C=C\C(C)=C\[C@H](C)[C@@H]1CC=C(OC)C(=O)O1)C(C)(C)C)OC(=O)NCCCNC(=O)CCCCCN1C(=O)C=CC1=O` [Compound 25], the IC50 [1] is reported as 0.044 µg/mL and 53.7 nM, the IC50 [2] is reported as 0.053 µg/mL and 64.6 nM and the IC50 [3] is reported as > 0.1 µg/mL and > 122 nM. For the same compound, the IC50 [4, 7] was 0.025 µg/mL to 0.053 µg/mL and 31 nM to 65 nM, the IC50 [4, 8] was 41 ng/mL and the “mean IC50 value across the whole cell panel” value ([4]; four breast cell lines) was 49 nM. The IC50 [5] was 0.0255 µg/mL and 31.1 nM.

With `CC#CC[C@@H](C/C=C\NC(=O)[C@@H](NC(=O)\C=C/C=C\C(C)=C\[C@H](C)[C@@H]1CC=C(OC)C(=O)O1)C(C)(C)C)OC(=O)NCCCNC(=O)CCS` [Compound 27] the IC50 [1] was 0.0165 µg/mL and 23.1 nM, the IC50 [2] was 0.039 µg/mL and 54.6 nM and the IC50 [3] was 0.0345 µg/mL and 48.3 nM. The IC50 [4, 7] was 0.0105 µg/mL to 0.039 µg/mL and 15 nM to 55 nM, the IC50 [4, 8] was 0.025 µg/mL and 35 nM and the IC50 [5] was 0.0105 µg/mL and 14.7 nM.

In the case of `CC#CC[C@@H](C/C=C\NC(=O)[C@@H](NC(=O)\C=C/C=C\C(C)=C\[C@H](C)[C@@H]1CC=C(OC)C(=O)O1)C(C)(C)C)OC(N)=O` [Compound 41], the IC50 [1] is reported as 0.000104 µg/mL and 0.183 nM, the IC50 [2] is reported as 0.000265 µg/mL and 0.465 nM and the IC50 [3] is reported as 0.00018 µg/mL and 0.316 nM. For the same compound, the IC50 [4, 7] was 0.075 to 0.14 ng/mL, the IC50 [4, 8] was 0.00016 µg/mL and 0.29 nM and the IC50 [4, 9] was 0.19 nM. For the same compound, the IC50 [5] was 0.00011 µg/mL and 0.193 nM.

With “Rituximab: anti-CD20 monoclonal antibody [reference compound]” the “cytotoxic activity” value ([6]; 50 μg/mL) was “virtually inactive” and the “cytotoxic activity in DR curves” value ([6]; 5.0E+01 to 2.62E-05 μg/mL) was “rather inactive”.

— patent publication US12410148B2, “Antibody drug conjugates” (Pharma Mar, S.A., priority 2013, dated 2025)
